Where two headings read alike, the source gives them in different places.
What was measured:
[1] = molecular target: T1, recombinant human ghrelin receptor (HEK293/GRLN) (Homo sapiens, UniProt Q92847); experiment: Ghrelin inverse agonist potency (EC50) with IP-1 (IP-One HTRF) assay; type: cell-based; conditions: IP-1 assay
T1 construct: expressed in transfected cells
How it was run: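 IP-1 accumulation was measured by HTRF (IP1-d2/Tb-cryptate, 620/665 nm read after 1 hour at room temperature) following 1 hour of compound treatment at 37° C. Cells were HEK293 stably expressing human ghrelin receptor, plated a day earlier on Matrigel. Inverse agonist potency was reported as EC50.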

[2] = molecular target: T2, GHSR-1a (HEK293/GHSR1a cell line) (Homo sapiens, UniProt Q92847); experiment: Ghrelin antagonist potency (IC50) with calcium FLIPR assay, ghrelin 10 nM; type: cell-based; conditions: ghrelin antagonist potency
T2 construct: expressed in transfected cells; host or cells: HEK293/GHSR1a cell line
T2 sequence (Q92847 whole entry): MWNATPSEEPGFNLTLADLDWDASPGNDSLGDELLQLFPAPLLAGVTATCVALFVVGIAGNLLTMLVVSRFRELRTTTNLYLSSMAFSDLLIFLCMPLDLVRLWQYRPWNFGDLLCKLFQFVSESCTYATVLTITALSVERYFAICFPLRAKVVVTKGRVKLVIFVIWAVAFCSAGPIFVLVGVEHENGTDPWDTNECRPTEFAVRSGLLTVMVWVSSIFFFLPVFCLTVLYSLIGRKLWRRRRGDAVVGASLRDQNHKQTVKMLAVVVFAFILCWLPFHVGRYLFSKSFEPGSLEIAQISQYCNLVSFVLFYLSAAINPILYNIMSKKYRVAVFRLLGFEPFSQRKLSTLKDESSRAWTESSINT
How it was run: (§1)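 Calcium flux was followed 2 min by FLIPR in dye-loaded HEK293/GHSR1a cells. For antagonist IC50, compound and ghrelin (10 nM) were co-added at t=20 sec and inhibition of the ghrelin signal fitted; for agonist EC50, compound alone was added at t=20 sec and dose-response fitted.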

[3] = Metabolic stability in human liver microsomes; type: in vitro ADME
How it was run: (§2)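 Parent compound was measured by LC-MS/MS at time zero and after 10, 30 and 90 min at 37 °C. Incubations used liver microsomes from four species (human, dog, rat, mouse) with an NADPH regenerating system in pH 7.4 potassium phosphate buffer. Each timepoint was stopped with cold quench solution.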

[4] = Metabolic stability in mouse liver microsomes; type: in vitro ADME
How it was run: as §2

[5] = Animal PK study in mouse via i.v., p.o. and s.c. administration; type: in vivo; conditions: for PK CLiv / PK Vdiv / PK t1/2iv: i.v.; for PK CLpo / PK Vdpo / PK t1/2po: p.o.
Procedure: All treated animals received a single dose of a test compound (either through i.v., p.o., or s.c. administration) according to the regimen shown in the following table:
For oral dose groups, appropriate amount of test compound was prepared in the following formulation carrier: 1% DMSO (increase to 5% maximum if necessary) and 0.5% Methycellulose. Each mouse or rat received by oral gavage 10 mL/kg of the formulation mixture.
For i.v. and s.c dose groups, appropriate amount of test compound was dissolved in 1% DMSO (increase to 5% maximum if necessary), 99% of 20% HP-β-Cyclodextron (w/v). The pH was adjusted accordingly. Each mouse or rat received 5 mL/kg of the formulation mixture. i.v. dose was administered by tail vein injection. Subcutaneous injection was administered over the shoulders, into the loose skin over the neck. At designated time points (e.g., i.v. and s.c.: 0.083, 0.25, 0.5, 1, 2, 4, 8 and 24 hrs; p.o.: 0.25, 0.5, 1, 2, 4, 8 and 24 hrs), systemic samples of blood (50 μL in mouse or 500 μL in rat) were collected by puncture (submandibular vein in mouse or jugular vein in rat) into vacutainers containing EDTA-K2 as anti-coagulant. The blood was centrifuged at 6000 rpm for 8 min at 4° C. to obtain plasma. All plasma samples were stored at −20° C. All plasma samples were added to acetonitrile for protein precipitation and quantitatively analyzed by LC-MS/MS.

[6] = molecular target: T2, GHSR-1a (HEK293/GHSR1a cell line); experiment: Ghrelin agonist potency (EC50) with calcium FLIPR assay; type: cell-based; conditions: ghrelin agonist potency, read-out: Activity EC50/EMax
How it was run: as §1

[7] = inverse agonist potency, read-out: EC50 (Activity)
[8] = ghrelin inverse agonist potency, read-out: Activity EC50

T1 sequence (Q92847 whole entry): as above

Row | Structure (SMILES) | EC50 [1, 7] [nM] | IC50 ([2]; read-out: IC50 (Activity)) [nM] | Metabolic Stability Study H = human [3] | Metabolic Stability Study M = mouse [4] | PK F [5] [%] | PK CLiv [5] [mL/min/kg] | PK Vdiv [5] [L/kg] | PK t1/2iv [5] [h] | PK CLpo [5] [mL/min/kg] | PK Vdpo [5] [L/kg] | PK t1/2po [5] [h] | EC50 [1, 8] [nM] | EC50 [6] [nM] | IC50 ([2]; read-out: Activity IC50) [nM]
1 | C[C@H](NC(=O)Nc1ccc(S(=O)(=O)Cc2ccc(CC(C)(C)N(C)C)cc2)cc1)c1cccc(Cl)c1Cl [H1010, (S)-1-(1-(2,3-dichlorophenyl)ethyl)-3-(4-((4-(2-(dimethylamino)-2-methylpropyl)benzyl)sulfonyl)phenyl)urea] | 15 | 42 | H = 40.5 M = 40.5 R = not reported D = not reported μL/min/mg | H = 40.5 M = 40.5 R = not reported D = not reported μL/min/mg | 3.09 | 55.7 | 1.39 | 1.39 | 1803 | 169 | 1.08 | – | – | –
2 | COc1ccc([C@H](C)NC(=O)Nc2ccc(S(=O)(=O)Cc3ccc4c(c3)CCN(C(C)=O)C4)cc2)c(Cl)c1Cl [H1025, (S)-1-(4-(((2-acetyl-1,2,3,4-tetrahydroisoquinolin-6-yl)methyl)sulfonyl)phenyl)-3-(1-(2,3-dichloro-4-methoxyphenyl)ethyl)urea] | – | 21400 | 92.4 µL/min/mg | 159.5 µL/min/mg | 5.92 | 30.7 | 2.86 | 1.08 | 514.8 | 94.83 | 1.45 | – | – | –
3 | O=C(NCc1ccccc1Cl)Nc1ccc(S(=O)(=O)Cc2ccc3c(c2)CCNC3)cc1 [H1039, 1-(2-chlorobenzyl)-3-(4-(((1,2,3,4-tetrahydroisoquinolin-6-yl)methyl)sulfonyl)phenyl)urea] | 33.3 | 113 | < 10 µL/min/mg | 13.5 µL/min/mg | 0.6 | 42.5 | 11.7 | 3.18 | 5573 | 898 | 1.86 | – | – | –
4 | COC(=O)c1cc(NC(=O)NC(C)c2ccccc2)ccc1S(=O)(=O)Cc1ccc2c(c1)CNC2 (stereo not shown) [H1505, methyl 2-((isoindolin-5-ylmethyl)sulfonyl)-5-(3-(1-phenylethyl)ureido)benzoate] | – | – | 37.3 µL/min/mg | 135.5 µL/min/mg | – | – | – | – | – | – | – | 11.7 | > 30000 | 8.28
5 | CC(NC(=O)Nc1ccc(S(=O)(=O)Cc2ccc3c(c2)CNC3)c(C2CC2)c1)c1ccccc1 (stereo not shown) [H1506, 1-(3-cyclopropyl-4-((isoindolin-5-ylmethyl)sulfonyl)phenyl)-3-(1-phenylethyl)urea] | – | – | 49.2 µL/min/mg | 132.5 µL/min/mg | – | – | – | – | – | – | – | 4.2 | > 30000 | 2.28
6 | CC(c1cccc(Cl)c1Cl)N(O)C(=O)Nc1ccc(S(=O)(=O)Cc2ccc3c(c2)CNC3)cc1.O=C(O)C(F)(F)F (stereo not shown) [H1509, 1-(1-(2,3-dichlorophenyl)ethyl)-1-hydroxy-3-(4-((isoindolin-5-ylmethyl)sulfonyl)phenyl)urea] | – | – | 15.9 µL/min/mg | 16.0 µL/min/mg | – | – | – | – | – | – | – | 1 | > 30000 | 0.336
7 | COc1cc(NC(=O)N(O)C(C)c2ccccc2F)ccc1S(=O)(=O)Cc1ccc2c(c1)CNC2 (stereo not shown) [H1510, 1-(1-(2-fluorophenyl)ethyl)-1-hydroxy-3-(4-((isoindolin-5-ylmethyl)sulfonyl)-3-methoxyphenyl)urea] | – | – | 23.8 µL/min/mg | 18.4 µL/min/mg | – | – | – | – | – | – | – | 3.5 | > 30000 | 5.36
8 | COc1cc(NC(=O)N(O)C(C)c2ccccc2F)ccc1S(=O)(=O)Cc1ccc2c(c1)CN(C)C2 (stereo not shown) [H1511, 1-(1-(2-fluorophenyl)ethyl)-1-hydroxy-3-(3-methoxy-4-(((2-methylisoindolin-5-yl)methyl)sulfonyl)phenyl)urea] | – | – | 94.2 µL/min/mg | 44.5 µL/min/mg | – | – | – | – | – | – | – | 5.2 | > 30000 | 6.04
9 | COc1cc(NC(=O)N(O)C(C)c2ccccc2)ccc1S(=O)(=O)Cc1ccc2c(c1)CNC2 (stereo not shown) [H1515, 1-hydroxy-3-(4-((isoindolin-5-ylmethyl)sulfonyl)-3-methoxyphenyl)-1-(1-phenylethyl)urea] | – | – | 15.2 µL/min/mg | 18.4 µL/min/mg | – | – | – | – | – | – | – | 9.6 | > 30000 | 15.7
10 | COc1cc(NC(=O)N(O)C(C)c2ccccc2)ccc1S(=O)(=O)Cc1ccc2c(c1)CN(C)C2 (stereo not shown) [H1516, 1-hydroxy-3-(3-methoxy-4-(((2-methylisoindolin-5-yl)methyl)sulfonyl)phenyl)-1-(1-phenylethyl)urea] | – | – | 65.2 µL/min/mg | 35.1 µL/min/mg | – | – | – | – | – | – | – | 11.3 | > 30000 | 33.5
11 | COc1cc(S(=O)(=O)Cc2ccc3c(c2)CNC3)ccc1NC(=O)N(O)C(C)c1ccccc1 (stereo not shown) [H1517, 1-hydroxy-3-(4-((isoindolin-5-ylmethyl)sulfonyl)-2-methoxyphenyl)-1-(1-phenylethyl)urea] | – | – | 25.6 µL/min/mg | 56.6 µL/min/mg | – | – | – | – | – | – | – | 6.7 | > 30000 | 10.5
12 | COc1cc(S(=O)(=O)Cc2ccc3c(c2)CN(C)C3)ccc1NC(=O)N(O)C(C)c1ccccc1 (stereo not shown) [H1518, 1-hydroxy-3-(2-methoxy-4-(((2-methylisoindolin-5-yl)methyl)sulfonyl)phenyl)-1-(1-phenylethyl)urea] | – | – | 151.1 µL/min/mg | 154.7 µL/min/mg | – | – | – | – | – | – | – | 7.8 | > 30000 | 27.4
13 | CC(NC(=O)Nc1ccc(S(=O)(=O)Cc2ccc3c(c2)CNC3)cc1-c1cc[nH]n1)c1ccccc1 (stereo not shown) [H1519, 1-(4-((isoindolin-5-ylmethyl)sulfonyl)-2-(1H-pyrazol-3-yl)phenyl)-3-(1-phenylethyl)urea] | – | – | 47.3 µL/min/mg | 169.8 µL/min/mg | – | – | – | – | – | – | – | 4.6 | > 30000 | 12.1
14 | COc1cc(S(=O)(=O)Cc2ccc3c(c2)CCN(C)C3)ccc1NC(=O)N(O)C(C)c1cccc(Cl)c1Cl.O=C(O)C(F)(F)F (stereo not shown) [H1523, 1-(1-(2,3-dichlorophenyl)ethyl)-1-hydroxy-3-(2-methoxy-4-(((2-methyl-1,2,3,4-tetrahydroisoquinolin-6-yl)methyl)sulfonyl)phenyl)urea] | – | – | 100.9 µL/min/mg | 155.5 µL/min/mg | – | – | – | – | – | – | – | 2.1 | > 30000 | 4.92
15 | C[C@@H](NC(=O)Nc1ccc(S(=O)(=O)Cc2ccc3c(c2)C(F)CNC3)cc1)c1cccc(Cl)c1Cl (stereo partly drawn) [H1537, 1-((R)-1-(2,3-dichlorophenyl)ethyl)-3-(4-(((4-fluoro-1,2,3,4-tetrahydroisoquinolin-6-yl)methyl)sulfonyl)phenyl)urea] | – | – | 43.2 µL/min/mg | 135.3 µL/min/mg | – | – | – | – | – | – | – | 18.4 | > 30000 | 69
16 | C[C@@H](NC(=O)Nc1ccc(S(=O)(=O)Cc2ccc3c(c2)C(F)CN(C)C3)cc1)c1cccc(Cl)c1Cl (stereo partly drawn) [H1538, 1-((R)-1-(2,3-dichlorophenyl)ethyl)-3-(4-(((4-fluoro-2-methyl-1,2,3,4-tetrahydroisoquinolin-6-yl)methyl)sulfonyl)phenyl)urea] | – | – | 237.3 µL/min/mg | 354 µL/min/mg | – | – | – | – | – | – | – | 8.6 | > 30000 | 172

Source: US10501479B2, “Benzenesulfonyl-asymmetric ureas and medical uses thereof” (HELSINN HEALTHCARE SA, priority 2016, dated 2019)
